Measured values taken from patent US20130266665A1, “NANO[…] DISEASE THERAPY” (priority 2012, published 2013).

Assays:
Format in all cases: cell-based, human
OVCAR5-CisR cells [1] = assay: AFM cell stiffness (Young's modulus, peak indentation depth) of cisplatin-resistant OVCAR5-CisR cells
Source text: (§1) SKOV3 (American Type Culture Collection; Manassas, Va.) and OVCAR5 cells were maintained in Dulbecco's Modified Eagle's Medium supplemented with about 10% fetal bovine serum. SKOV3-CisR and OVCAR5-CisR cells were established by exposing the parental SKOV3 and OVCAR5 cell lines, respectively, to increasing concentrations of cisplatin over 12 months. OVCAR5-CisR cells are about 20- and SKOV3-CisR cells are about 8-fold more resistant to cisplatin compared to their syngeneic cisplatin sensitive counterparts. Cells were grown at about 37° C. in a humidified atmosphere containing about 5% CO2 and about 95% air.
(§2) Cells were treated with about 1 or about 5 μg/mL cisplatin (Sigma-Aldrich, St. […]
(§3) A protocol was established to exclude unhealthy or apoptotic cells from measurements by staining cells with AnnexinV (Sigma-Aldrich) as an indicator of apoptosis. Stained cells are dead or apoptotic, and typically float away and are no longer attached to a surface. Cells that stained positive for AnnexinV were excluded from AFM analysis. Measurements were conducted using a Catalyst AFM (Bruker Instruments, Santa Barbara, Calif.) with a combined inverted optical/confocal microscope (Zeiss Corp., Thornwood, N.Y.). This combination permits lateral positioning of an AFM tip over the cell center with submicron precision. AFM images and mechanical measurements were collected in contact mode using sharpened silicon nitride cantilevers with experimentally determined spring constants of about 0.02 N/m and a tip radius of less than about 20 nm. Mechanical measurements were obtained at about 37° C. with force measurements recorded at a pulling rate of about 1 Hz. Force-displacement curves were recorded for determination of Young's modulus values. Conversion of force-displacement curves to force-indentation curves allows the determination of the local cell surface elasticity or stiffness (Young's modulus, E). The measurement outcomes include averaged E values. Nanoscope files were converted to Igor. 6.0 (Wavemetrix) and used to generate two-dimensional (2D) stiffness matrix of the cell populations, allowing more precise determination of localized cell stiffness. AFM measurements were obtained in at least 60 cells in three different experiments. The AFM tip was precisely positioned (within micron range) on top of the nucleus using motorized stage and inverted optical view of the combined confocal-AFM microscope.
(§4) Data were expressed as mean±standard error of mean (SEM). Statistical significance was identified by Student's t-test or one-way analysis of variance (Origin 8.0, OriginLab Corporation, Northmpton, Mass.) for the difference among treated pairs.

SKOV3-CisR cells = assay: Resistance to cisplatin of SKOV3-CisR cells versus parental SKOV3; conditions: SKOV3-CisR vs SKOV3
Source text: as §1

OVCAR5 cells = assay: AFM cell stiffness (Young's modulus, peak indentation depth) of cisplatin-sensitive OVCAR5 cells; conditions: for Young's modulus E (mean±SEM), peak 2 / Young's modulus E (mean±SEM), peak 1: about 24 hours
Source text: as §1, §2, §3, §4

OVCAR5-CisR cells [2] = assay: Resistance to cisplatin of OVCAR5-CisR cells versus parental OVCAR5; conditions: OVCAR5-CisR vs OVCAR5
Source text: as §1

[3] = about 5 μM cytochalasin D alone

Compound	difference in cell stiffness between untreated and cisplatin-treated cells (OVCAR5-CisR cells [1]; cisplatin 5 μg/mL, P=0.45)	localized peak indentation (OVCAR5-CisR cells [1]; cisplatin 5 μg/mL, untreated 0.5±0.06 μm) [μm]	Young's modulus E, peak 1 (OVCAR5-CisR cells [1]; cisplatin 5 μg/mL, untreated 1.0±0.03 kPa) [kPa]	Young's modulus E, peak 2 (OVCAR5-CisR cells [1]; cisplatin 5 μg/mL, untreated 1.84±0.1 kPa) [kPa]	fold more resistant to cisplatin compared to syngeneic cisplatin sensitive counterpart (SKOV3-CisR cells) [fold]	Young's modulus E (mean±SEM), peak 2 (OVCAR5 cells; about 1 μg/mL cisplatin) [kPa]	Young's modulus E (mean±SEM), peak 1 (OVCAR5 cells; about 1 μg/mL cisplatin, untreated E=0.64±0.03 kPa) [kPa]	Young's modulus E (mean±SEM), peak 1 (OVCAR5 cells; about 5 μg/mL cisplatin) [kPa]	Young's modulus E (mean±SEM), peak 2 (OVCAR5 cells; about 5 μg/mL cisplatin) [kPa]	peak indentation depth (OVCAR5 cells; cisplatin 1 μg/mL, untreated 1.2±0.04 μm) [μm]	peak indentation depth (OVCAR5 cells; cisplatin 5 μg/mL) [μm]	fold more resistant to cisplatin compared to syngeneic cisplatin sensitive counterpart (OVCAR5-CisR cells [2]) [fold]	Young's modulus E (OVCAR5-CisR cells [1]; [3]) [kPa]	Young's modulus E (OVCAR5 cells; [3]) [kPa]
N.N.[Cl][Pt][Cl] [cisplatin, cis-diamminedichloridoplatinum(II)]	no significant difference	0.5±0.04	0.97±0.01	1.88±0.05	8	1.23±0.04	0.53±0.01	0.65±0.01	1.28±0.06	0.7±0.03	0.5±0.03	20	–	–
C=C1[C@@H](C)[C@H]2[C@H](Cc3ccccc3)NC(=O)[C@]23[C@H](OC(C)=O)/C=C/[C@@](C)(O)C(=O)[C@@H](C)C/C=C/[C@H]3[C@@H]1O [cytochalasin D]	–	–	–	–	–	–	–	–	–	–	–	–	0.45±0.01	0.34±0.02
